We go through 13 compounds from patent publication US12319703B2, “Macrocyclic fused pyrazoles as Mcl-1 inhibitors” (ASCENTAGE PHARMA (SUZHOU) CO., LTD., priority 2019, dated 2025).

One assay relates to OPM-2 cells. As to the kind of experiment: Cell viability assay (OPM-2 cells), CCK-8. It counts as cell-based. To be noted: Homo sapiens, OPM-2, 24 h, WST, 5% FBS, read-out: OPM2 (WST, 5% FBS). On the procedure:
Cell Viability Assay (OPM-2 Cells)
OPM-2 cells were obtained from Deutsche Sammlung von Mikroorganismen und Zellkulturen GmbH (DSMZ). […]
The effect of representative Compounds of the Disclosure on cell viability was determined using Cell Counting Kit-8 (CCK-8) assay (Shanghai Life iLab Bio Technology) according to the manufacturer's instructions. Each tested compound was serially diluted in culture medium, 100 μL of the compound dilution was added into 96-well plates. 100 μL of an OPM-2 cell suspension (20000 cells/well) in culture medium were seeded into the corresponding well of the plate and the cells were incubated at 37° C. in an atmosphere of 5% CO2 for 24 hours. In the next day, 20 μL of CCK-8 solution was added to each well of the plate and incubated for 4 hours.
The plates were read at 450 nm on the microplate spectrophotometer (SpectraMax plus 384, Molecular devices). The readings were normalized to the vehicle cells, and the IC50 was calculated by nonlinear regression analysis using GraphPad Prism 6 software.

For assay [1], the target named is T1, Mcl-1 protein (residues 171-323) (Homo sapiens, UniProt Q07820).
T1 construct: Tag-free Mcl-1 protein (residues 171-323) was used in the FP assay
As to the kind of experiment: Inhibition of Mcl-1 by fluorescence polarization (FP) competitive binding assay. Conditions: FAM-Bid tracer 2 nM, Mcl-1 20 nM, 30 min. The protocol: Inhibition of Mcl-1 by Fluorescence Polarization (FP) Assay.
The method used a fluorescein labelled peptide (FAM-Bid) which binds to the Mcl-1 protein leading to an increased anisotropy measured in milli-polarization (mP) values using a plate reader.
A 10-points serial dilution of each compound was prepared in DMSO and 5 μL solution was transferred into flat bottomed, 96-well back plate (final DMSO concentration 5%). 120 μL of Buffer (PBS, 0.01% BGG (Sigma Cat. #SRE0011), 0.01% Triton X-100), containing the Fluorescein labelled peptide (Final concentration 2 nM) and Mcl-1 protein (final concentration 20 nM) was then added. […] 10-points dose response curves were plotted with GraphPad software using Sigmoidal Dose-Response Model and the IC50 values were determined by nonlinear regression fitting of the competition curves.

Another assay has as its system NCI-H929 cells. The assay is described as follows: Cell viability assay (NCI-H929 cells), CCK-8. It counts as cell-based. To be noted: Homo sapiens, NCI-H929, 24 h, WST, 5% FBS. The protocol:
Cell Viability Assay (NCI-H929 Cells)
NCI-H929 cells were obtained from American Type Culture Collection (ATCC). Cells were maintained in the recommended culture medium (RPMI 1640) with 10% FBS and 0.05 mM BME at 37° C. and an atmosphere of 5% CO2.
The effect of Compounds on cell viability was determined using Cell Counting Kit-8 (CCK-8) assay according to the manufacturer's instructions. 95 μL of NCI-H929 cell suspension (20000 cells/well) in culture medium were seeded into 96-well plates and cultured 4 hrs. Each tested compound was serially diluted in DMSO, then 5 μL of the compound or DMSO was diluted in 95 μL medium once more. At last, 5 μL of the compound dilution was added to the corresponding well of the cell plate. After the addition of the tested compound, the cells were incubated at 37° C. in an atmosphere of 5% CO2 for 24 hrs. At the end, 10 μL of CCK-8 solution was added to each well of the plate and incubated for 1-4 hours. The plates were read at 450 nm on the microplate reader (BioTek Synergy 1MF). The readings were normalized to the vehicle cells, and the IC50 was calculated by nonlinear regression analysis using GraphPad Prism 6 software.

Some results are limits rather than exact numbers.

T1 sequence (Q07820 171-323): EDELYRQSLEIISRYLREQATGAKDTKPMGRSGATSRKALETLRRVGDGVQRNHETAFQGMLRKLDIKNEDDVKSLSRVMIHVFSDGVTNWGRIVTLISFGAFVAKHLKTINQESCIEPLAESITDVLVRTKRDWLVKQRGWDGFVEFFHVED

As to `Cn1nc2nc1CSc1cc(c3ccccc3c1)OCCCc1c(C(=O)O)n(C)c3c(c(Cl)ccc13)-c1c(nn3c1CCC3)CSC2` [compound 13, (Z)-1^6-chloro-1^1,6^1-dimethyl-2^5,2^6-dihydro-1^1H,2^4H,6^1H-10-oxa-4,8-dithia-1(7,3)-indola-2(3,2)-pyrrolo[1,2-b]pyrazola-6(3,5)-triazola-9(3,1)-naphthalenacyclotridecaphane-1^2-carboxylic acid], the IC50 with OPM-2 cells is over 10 µM; in assay [1], 0.0146 µM; in the assay with NCI-H929 cells, 4.3 µM.
Consider `Cn1nc2cc1CSc1cc(c3ccc(Cl)cc3c1)OCCCc1c(C(=O)O)n(C)c3c(c(Cl)ccc13)-c1c(nn3c1COCC3)CSC2` [compound 19, (Z)-1^6,9^6-dichloro-1^1,6^1-dimethyl-2^6,2^7-dihydro-1^1H,2^4H,6^1H-10-oxa-4,8-dithia-2(3,2)-pyrazolo[5,1-c][1,4]oxazina-1(7,3)-indola-6(3,5)-pyrazola-9(3,1)-naphthalenacyclotridecaphane-1^2-carboxylic acid], for which the IC50 with OPM-2 cells stood at 0.384 µM; in assay [1], 0.016 µM; with NCI-H929 cells, 0.25 µM.
The like results for `Cn1nc2cc1CSc1cc(c3ccccc3c1)OCCCc1c(C(=O)O)n(C)c3c(c(Cl)ccc13)-c1c(nn3c1CCCC3)CSC2` [compound 20, (Z)-1^6-chloro-1^1,6^1-dimethyl-2^4,2^5,2^6,2^7-tetrahydro-1^1H,6^1H-10-oxa-4,8-dithia-2(3,2)-pyrazolo[1,5-a]pyridina-1(7,3)-indola-6(3,5)-pyrazola-9(3,1)-naphthalenacyclotridecaphane-1^2-carboxylic acid] were, in that order, 0.174 µM, 0.0152 µM and 0.049 µM.
The like results for `Cn1nc2cc1CSc1cc(c3ccccc3c1)OCCCc1c(C(=O)O)n(C)c3c(c(Cl)ccc13)-c1c(nn3c1OCCC3)CSC2` [compound 22, (Z)-1^6-chloro-1^1,61-dimethyl-2^6,2^7-dihydro-1^1H,2^5H,6^1H-10-oxa-4,8-dithia-2(3,2)-pyrazolo[5,1-b][1,3]oxazina-1(7,3)-indola-6(3,5)-pyrazola-9(3,1)-naphthalenacyclotridecaphane-1^2-carboxylic acid] were, in that order, 1.15 µM, 0.0159 µM and 0.225 µM.
Taken in the same sequence, the figures for `Cn1nc2cc1CSc1cc(c3ccccc3c1)OCCCc1c(C(=O)O)n(C)c3c(c(Cl)ccc13)-c1c(nn3c1CN(S(C)(=O)=O)CC3)CSC2` [compound 25, (Z)-1^6-chloro-1^1,6^1-dimethyl-2^5-(methylsulfonyl)-2^4,2^5,2^6,2^7-tetrahydro-1^1H,6^1H-10-oxa-4,8-dithia-2(3,2)-pyrazolo[1,5-a]pyrazina-1(7,3)-indola-6(3,5)-pyrazola-9(3,1)-naphthalenacyclotridecaphane-1^2-carboxylic acid] were 9.05 µM, 0.0149 µM and 4.97 µM.
Take `Cn1nc2cc1CSc1cc(c3ccc(F)cc3c1)OCCCc1c(C(=O)O)n(C)c3c(c(Cl)ccc13)-c1c(nn3c1CCCCC3)CSC2` [compound 28, (Z)-1^6-chloro-9^6-fluoro-1^1,6^1dimethyl-2^5,2^6,2^7,2^8-tetrahydro-1^1H,2^4H,6^1H-10-oxa-4,8-dithia-2(3,2)-pyrazolo[1,5-a]azepina-1(7,3)-indola-6(3,5)-pyrazola-9(3,1)-naphthalenacyclotridecaphane-1^2-carboxylic acid]: the IC50 in the assay with OPM-2 cells stood at 0.184 µM; in assay [1] it was 0.0159 µM; in the assay on NCI-H929 cells it was 0.055 µM.
The like results for `Cc1cc2ccc1CSCc1nn3c(c1-c1c(Cl)ccc4c(c(C(=O)O)n(C)c14)CCCOc1cc(cc4cc(F)ccc14)SC2)CCC3` [compound 29, 1^6-chloro-9^6-fluoro-1^1,6^2-dimethyl-2^5,2^6-dihydro-1^1H,2^4H-10-oxa-4,8-dithia-1(7,3)-indola-2(3,2)-pyrrolo[1,2-b]pyrazola-9(3,1)-naphthalena-6(1,4)-benzenacyclotridecaphane-1^2-carboxylic acid] were, in that order, 0.348 µM, 0.0149 µM and 0.158 µM.
Taken in the same sequence, the figures for `Cn1c(C(=O)O)c2c3ccc(Cl)c(c31)-c1c(nn3c1CCC3)CSCc1ccc(cn1)CSc1cc(c3ccc(F)cc3c1)OCCC2` [compound 31, 1^6-chloro-9^6-fluoro-1^1-methyl-2^5,2^6-dihydro-1^1H,2^4H-10-oxa-4,8-dithia-1(7,3)-indola-2(3,2)-pyrrolo[1,2-b]pyrazola-6(2,5)-pyridina-9(3,1)-naphthalenacyclotridecaphane-1^2-carboxylic acid] were 0.125 µM, 0.014 µM and 0.063 µM.
Taken in the same sequence, the figures for `CC(=O)N1Cc2cc(n(C)n2)CSc2cc(c3ccccc3c2)OCCCc2c(C(=O)O)n(C)c3c(c(Cl)ccc23)-c2c(nn(C)c2C)C1` [compound 35, (Z)-4-acetyl-1^6-chloro-1^1,2^1,2^5,6^1-tetramethyl-1^1H,2^1H,6^1H-10-oxa-8-thia-4-aza-1(7,3)-indola-2(4,3),6(3,5)-dipyrazola-9(3,1)-naphthalenacyclotridecaphane-1^2-carboxylic acid] were 0.763 µM, 0.016 µM and 0.215 µM.
As for `Cn1nc2cc1CSc1cc(c3ccc(F)cc3c1)OCCCc1c(C(=O)O)n(C)c3c(c(Cl)ccc13)-c1c(nn3c1CCC3)CN(S(=O)(=O)Cc1ccccc1)C2` [compound 41, (Z)-4-(benzylsulfonyl)-1^6-chloro-9^6-fluoro-1,6^1-dimethyl-2^5,2^6-dihydro-1^1H,2^4H,6^1H-10-oxa-8-thia-4-aza-1(7,3)-indola-2(3,2)-pyrrolo[1,2-b]pyrazola-6(3,5)-pyrazola-9(3,1)-naphthalenacyclotridecaphane-1^2-carboxylic acid], the figures for the IC50 (in the assay on OPM-2 cells; in assay [1]; in the assay on NCI-H929 cells) were 0.327 µM, 0.012 µM and 0.366 µM, respectively.
The like results for `Cn1nc2cc1CSc1cc(c3ccc(F)cc3c1)OCCCc1c(C(=O)O)n(C)c3c(c(Cl)ccc13)-c1c(nn3c1COCC3)CN(S(C)(=O)=O)C2` [compound 42, (Z)-1^6-chloro-9^6-fluoro-1^1,6^1-dimethyl-4-(methylsulfonyl)-2^6,2^7-dihydro-1^1H,2^4H,6^1H-10-oxa-8-thia-4-aza-2(3,2)-pyrazolo[5,1-c][1,4]oxazina-1(7,3)-indola-6(3,5)-pyrazola-9(3,1)-naphthalenacyclotridecaphane-1^2-carboxylic acid] were, in that order, 0.357 µM, 0.017 µM and 0.261 µM.
On to `Cn1nc2cc1CSc1cc(c3ccc(F)cc3c1)OCCCc1c(C(=O)O)n(C)c3c(c(Cl)ccc13)-c1c(nn3c1COCC3)CN(S(=O)(=O)C1CC1)C2` [compound 43, (Z)-1^6-chloro-4-(cyclopropylsulfonyl)-9^6-fluoro-1^1,6^1-dimethyl-2^6,2^7-dihydro-1^1H,2^4H,6^1H-10-oxa-8-thia-4-aza-2(3,2)-pyrazolo[5,1-c][1,4]oxazina-1(7,3)-indola-6(3,5)-pyrazola-9(3,1)-naphthalenacyclotridecaphane-1^2-carboxylic acid], for which the values for the IC50 (in the assay on OPM-2 cells; in assay [1]; in the assay with NCI-H929 cells) were 0.451 µM, 0.012 µM and 0.19 µM, respectively.
The like results for `Cc1c2c(nn1C)CN(S(=O)(=O)C(F)(F)F)Cc1cc(n(C)n1)CSc1cc(c3ccc(F)cc3c1)OCCCc1c(C(=O)O)n(C)c3c-2c(Cl)ccc13` [compound 46, (Z)-1^6-chloro-9^6-fluoro-1^1,2^1,2^5,6^1-tetramethyl-4-((trifluoromethyl)sulfonyl)-1^1H,2^1H,6^1H-10-oxa-8-thia-4-aza-1(7,3)-indola-2(4,3),6(3,5)-dipyrazola-9(3,1)-naphthalenacyclotridecaphane-1^2-carboxylic acid] were, in that order, 0.049 µM, 0.012 µM and 0.061 µM.
